Results reported in patent US20090170867A1, “TRPV1 ANTAGONISTS INCLUDING SULFONAMIDE SUBSTITUENT AND USES THEREOF” (Shionogi & Co., Ltd., priority 2007, published 2009).

Target: T1, human TRPV1 (Homo sapiens, UniProt Q8NER1)
T1 construct: using primers designed surrounding the complete hTRPV1 open reading frame; expressed in transfected cells; host or cells: CHO-K1 cells stably transfected with pcDNA3.1(-)-hVR1 plasmid
Assay: Capsaicin-based assay, Protocol 2 (TRPV1/CHO cells, Fluo-4, FLIPR)
Type: cell-based
Details: capsaicin 100 nM final, mean ± SEM, number of trials in parentheses, read-out: TRPV1 IC50 Potency, Human Capsaicin CHO (hCAP-CHO)
Source text: The TRPV1/CHO cell line was generated as described below. […] The resulting PCR products were purified from agarose gels using Gel Band Purification Kit (GE Healthcare Bioscience) and were subcloned into pCR-Blunt vector (Invitrogen). The cloned cDNA was fully sequenced using a fluorescent dye-terminator reagent (BigDye Terminator ver3.1 Cycle Sequencing Kit, Applied Biosystems) and ABI Prism 3100 genetic analyzer (Applied Biosystems). The pCR-Blunt vector containing the hTRPV1 cDNA was subjected to restriction digestion with EcoRI. The restriction fragment was subcloned into expression vector pcDNA3.1 (-) (Invitrogen) and named pcDNA3.1 (-)-hVR1 plasmid. The sequence of the cDNA encoding TRPV1 is available at GenBank accession number AJ277028. […] The cells were transfected with the pcDNA3.1 (-)-hVR1 plasmid using FuGENE6 (Roche) according to the manufacturer's protocol. 24 hr after transfection, neomycin-resistant cells were selected using 1 mg/mL G418 (Nacalai Tesque). […] The cells expressing hTRPV1 were cultured in the growth medium supplemented with 1 mg/mL G418. […] Subsequently, the cells were loaded by incubation in 0.1 mL of wash buffer containing Fluo-4 at 3 μM final concentration. After 1 hour, the cells were washed twice with 0.2 mL wash buffer and resuspended in 0.1 mL wash buffer. The plates were then transferred to a Fluorescence Imaging Plate Reader (Molecular Devices). Fluorescence intensity was monitored for 15 seconds to establish a baseline. […] The final concentration of the compound was adjusted to range from 100 μM to 1.5625 μM. […] Data were collected over the entire time course and analyzed using Excel and the curve-fitting formula GraphPad Prism.

T1 sequence (Q8NER1 whole entry): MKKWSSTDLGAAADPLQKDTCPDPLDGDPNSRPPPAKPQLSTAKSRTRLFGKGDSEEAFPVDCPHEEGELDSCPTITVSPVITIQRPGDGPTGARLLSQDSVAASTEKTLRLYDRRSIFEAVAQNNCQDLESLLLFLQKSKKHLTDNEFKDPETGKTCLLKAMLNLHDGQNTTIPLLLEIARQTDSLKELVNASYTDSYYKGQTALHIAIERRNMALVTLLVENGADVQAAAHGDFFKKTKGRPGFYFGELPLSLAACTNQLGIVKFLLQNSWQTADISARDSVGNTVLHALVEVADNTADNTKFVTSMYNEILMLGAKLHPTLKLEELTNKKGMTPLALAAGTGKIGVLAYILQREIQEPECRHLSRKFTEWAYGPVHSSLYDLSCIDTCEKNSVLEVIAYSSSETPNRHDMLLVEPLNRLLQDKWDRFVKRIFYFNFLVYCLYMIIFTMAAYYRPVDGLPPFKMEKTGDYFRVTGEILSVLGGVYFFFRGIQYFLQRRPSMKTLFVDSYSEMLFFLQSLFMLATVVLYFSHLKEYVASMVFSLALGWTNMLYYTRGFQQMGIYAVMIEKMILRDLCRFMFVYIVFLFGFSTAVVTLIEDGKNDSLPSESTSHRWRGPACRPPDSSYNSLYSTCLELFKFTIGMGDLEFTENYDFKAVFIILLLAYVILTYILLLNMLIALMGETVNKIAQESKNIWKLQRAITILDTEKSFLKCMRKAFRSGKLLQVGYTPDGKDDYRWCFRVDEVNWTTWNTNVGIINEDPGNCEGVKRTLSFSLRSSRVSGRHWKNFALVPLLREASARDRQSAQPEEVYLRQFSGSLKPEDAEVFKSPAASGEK

IC50 | SMILES
> 10 µM | CN(C)CC(O)c1cnc(C2=CCN(C(=O)Nc3ccc(C(F)(F)F)cc3)CC2)c(Cl)c1 (single isomer, unassigned) [Compound L5]
> 25 µM | CC(C)c1cc(NC(=O)N2CC=C(c3ncccc3Cl)CC2)ccc1OC(F)(F)F [Compound 205]
0.0841 ± 0.0112 µM | COc1cc(NC(=O)N2CC=C(c3ncc([C@H](O)CO)cc3Cl)CC2)ccc1C(F)(F)F [Compound A2]
0.0551 ± 0.0086 µM | CC1(C)CCOc2cc(NC(=O)N3CC=C(c4ncc([C@H](O)CO)cc4F)CC3)ccc21 [Compound A4]
0.541 ± 0.216 µM | O=C(Nc1ccc(S(=O)(=O)N2CCCC2)c(C(F)(F)F)c1)N1CC=C(c2ncc([C@@H](O)CO)cc2Cl)CC1 [Compound C3]
0.565 ± 0.0586 µM | O=C(Nc1ccc(C(F)(F)F)c(-c2ccccc2)c1)N1CC=C(c2ncc(CO)cc2Cl)CC1 [Compound D3]
0.133 ± 0.0291 µM | COc1cc(NC(=O)N2CCC(F)(c3ncc([C@@H](O)CO)cc3F)CC2)ccc1C(F)(F)F [Compound D5]
0.621 ± 0.117 µM | O=C(Nc1ccc(C(F)(F)F)cn1)N1CC=C(c2ncc(CCO)cc2Cl)CC1 [Compound D6]
0.0185 ± 0.0049 µM | CC(C)(C)c1ccc(NC(=O)N2CC=C(c3ncc([C@@H](O)CO)cc3F)CC2)cc1 [Compound E1]
0.0757 ± 0.0128 µM | COc1cc(NC(=O)N2CCC(F)(c3ncc([C@@H](O)CO)cc3Cl)CC2)ccc1C(F)(F)F [Compound E4]
0.166 ± 0.0247 µM | O=C(Nc1nc2ccc(F)cc2s1)N1CCC(F)(c2ncc([C@H](O)CO)cc2F)CC1 [Compound F5]
0.118 ± 0.0221 µM | O=C(Nc1ccc(OC(F)(F)F)c(Cl)c1)N1CC=C(c2ncc([C@H](O)CO)cc2Cl)CC1 [Compound H2]
1.11 ± 0.134 µM | COCc1cnc(C2=CCN(C(=O)Nc3ccc(C(F)(F)F)cn3)CC2)c(Cl)c1 [Compound H3]
1.36 ± 0.337 µM | CC(C)S(=O)(=O)c1ccc(NC(=O)N2CC=C(c3ncc(CO)cc3Cl)CC2)cc1C(F)(F)F [Compound I3]
2.94 ± 0.319 µM | COc1cc(C(F)(F)F)ccc1NC(=O)N1CC=C(c2ncc(CO)cc2Cl)CC1 [Compound J3]
1.88 ± 0.634 µM | O=C(Nc1nc2ccc(Cl)cc2[nH]1)N1CCC(F)(c2ncc([C@@H](O)CO)cc2F)CC1 [Compound J5]
0.21 ± 0.0195 µM | O=C(Nc1ccc(C(F)(F)F)cn1)N1CC=C(c2ncc([C@H](O)CO)cc2F)CC1 [Compound K4]
2.75 ± 0.542 µM | CN1CCCc2ccc(NC(=O)N3CC=C(c4ncccc4F)CC3)cc21 [Compound K5]
0.439 ± 0.14 µM | O=C(Nc1nc2ccc(F)cc2s1)N1CC=C(c2ncc([C@H](O)CO)cc2F)CC1 [Compound L4]
0.471 ± 0.127 µM | CS(=O)(=O)NCc1cnc(C2=CCN(C(=O)Nc3ccc(C(F)(F)F)cc3)CC2)c(Cl)c1 [Compound M4]
1.31 ± 0.221 µM | O=C(Nc1nc2ccc(Cl)cc2[nH]1)N1CCC(F)(c2ncc([C@H](O)CO)cc2Cl)CC1 [Compound N4]

IC50 | SMILES
0.14 µM | O=C(Nc1nc2ccc(F)cc2s1)N1CCC(F)(c2ncc([C@@H](O)CO)cc2F)CC1 [Compound N5]
0.0411 ± 0.0178 µM | CCCOc1cc(NC(=O)N2CC=C(c3ncc([C@H](O)CO)cc3Cl)CC2)ccc1C(F)(F)F [Compound O1]
0.046 ± 0.0113 µM | O=C(Nc1ccc(S(=O)(=O)C(F)(F)F)cc1)N1CC=C(c2ncc([C@@H](O)CO)cc2Cl)CC1 [Compound O3]
1.52 ± 0.339 µM | O=C(Nc1ccc(C(F)(F)F)cc1)N1CC=C(c2ncc(C(CO)CO)cc2Cl)CC1 [Compound O4, 4-(3-chloro-5-(1,3-dihydroxypropan-2-yl)pyridin-2-yl)-N-(4-(trifluoromethyl)phenyl)-5,6-dihydropyridine-1(2H)-carboxamide]
0.244 µM | Cc1cc2nc(NC(=O)N3CC=C(c4ncc([C@H](O)CO)cc4Cl)CC3)sc2cc1C [Compound O5]
0.0505 ± 0.0095 µM | O=C(Nc1ccc(S(=O)(=O)C(F)(F)F)cc1)N1CC=C(c2ncc([C@H](O)CO)cc2F)CC1 [Compound P1]
1.81 ± 0.302 µM | O=C(Nc1nc2ccc(Cl)cc2[nH]1)N1CC=C(c2ncc([C@H](O)CO)cc2Cl)CC1 [Compound P4]
0.0495 µM | CC1(c2ncc([C@@H](O)CO)cc2F)CCN(C(=O)Nc2ccc(C(F)(F)F)c(Cl)c2)CC1 [Compound P5]
0.0143 ± 0.0013 µM | CC1(c2ncc([C@H](O)CO)cc2F)CCN(C(=O)Nc2ccc(C(F)(F)F)c(Cl)c2)CC1 [Compound Q3]
2.9 ± 0.302 µM | O=C(Nc1nc2ccc(Cl)cc2[nH]1)N1CC=C(c2ncc([C@@H](O)CO)cc2Cl)CC1 [Compound Q4]
0.051 ± 0.0188 µM | O=C(Nc1nc2ccc(F)cc2s1)N1CC=C(c2ncc([C@H](O)CO)cc2Cl)CC1 [Compound R1]
0.0155 ± 0.0035 µM | Cc1cc(NC(=O)N2CCC(F)(c3ncc([C@H](O)CO)cc3F)CC2)ccc1OC(F)(F)F [Compound R3]
3.28 ± 0.761 µM | O=C(Nc1nc2ccc(Cl)cc2[nH]1)N1CCC(F)(c2ncc([C@H](O)CO)cc2F)CC1 [Compound R4]
0.346 µM | Cc1cc(NC(=O)N2CC=C(c3ncc([C@@H](O)CO)cc3Cl)CC2)ccc1OC(F)(F)F [Compound R5]
7.03 ± 2.06 µM | CN(C(=O)N1CC=C(c2ncc([C@H](O)CO)cc2Cl)CC1)c1ccc(C(F)(F)F)cc1 [Compound S4]
0.226 ± 0.0693 µM | O=C(Nc1ccc(Cl)c(C(F)(F)F)c1)N1CC=C(c2ncc([C@H](O)CO)cc2Cl)CC1 [Compound T2]
0.451 ± 0.0924 µM | O=C(Nc1ccc(C(F)(F)F)cc1)N1CCC(F)(c2ncc(C(O)(CO)CO)cc2Cl)CC1 [Compound T5]
0.0199 ± 0.0069 µM | O=C(Nc1ccc(C(F)(F)F)c(F)c1)N1CCC(F)(c2ncc([C@@H](O)CO)cc2Cl)CC1 [Compound U5]
0.034 ± 0.0092 µM | COc1cc(NC(=O)N2CCC(F)(c3ncc([C@H](O)CO)cc3Cl)CC2)ccc1C(F)(F)F [Compound V3]
0.0384 ± 0.008 µM | O=C(Nc1ccc(C(F)(F)F)cc1)N1CCC(F)(c2ncc([C@@H](O)CO)cc2F)CC1 [Compound X4]
0.23 ± 0.0655 µM | COc1cc(NC(=O)N2CC=C(c3ncc([C@@H](O)CO)cc3Cl)CC2)ccc1C(F)(F)F [Compound X5]

SMILES | IC50
O=C(Nc1ccc(C(F)(F)F)cc1)N1CCC(F)(c2ncc(C(O)CO)cc2Cl)CC1 (stereo not shown) [Compound A1] | 0.007 ± 0.0018 µM
